From patent US9221783B2, “Phenylalkyl sulfamate compound and muscle relaxant composition comprising the same” (BIO-PHARM SOLUTIONS CO., LTD., priority 2012, dated 2015)

Experiments:
Assay type in all cases: in vivo
[1] = tested on: male mice (ICR); experiment: Muscle relaxation activity by grip strength test (forelimbs); settings: intraperitoneal; for ED50: Mus musculus, ip; for Grip strength, percentage compared to the vehicle only (100%): dose 200 (unit not given)
Description: (§1) For testing, male mice (ICR) were purchased from ORIENT BIO INC. (Korea), divided into several groups with 6 mice in each group, and were adapted for 4-5 days. The mice having the weight ranging from 19 g to 26 g were employed for the test. The pharmacological effect of the test compounds on muscle relaxation was evaluated by Rotarod test, grip strength test, and muscular force (wire hang) test. All mice were adapted to the test environment at one hour before starting the tests. The pharmacological effects of all the test compounds were evaluated by administration through peritoneal cavity of the mice (10 ul/g, bw).
The test was conducted before and after administration of the compounds to evaluate the effects thereof. […] The mouse was made to grip the rod with its forelimbs, and its tail was pulled, where the force at which the mouse detached from the rod was recorded. The instrument indicated the force in grams. All of the mice were given 3 opportunities for test, and the 3 highest values among the test opportunities were selected and the mean value was used as the test result. […] Psychopharmacol. 110: 92-96’.
(§2) The obtained results are shown as mean±sem. The difference between the groups was statistically analyzed by ANOVA, and then, further examined by Dunnett's test or Bonferroni test. If p is less than 0.05, it was determined that the difference between the groups had statistical significance.

[2] = tested on: male mice (ICR); experiment: Muscle relaxation activity by wire hang (wire suspension) test; settings: intraperitoneal; for ED50: Mus musculus, ip, ED50 vs vehicle only (100%); for Wire suspension, percentage compared to the vehicle only (100%): dose 100 (unit not given)
Description: as §1
This experimentation was conducted using a metal wire of 30 cm in length, which was suspended between two pillars at a height of about 40 cm from the bottom covered with a soft pad. […] Each mouse was made to grip the wire using two forelimbs, and the elapse time before the mouse fell off from the wire to the pad on the bottom was recorded in seconds. Each mouse was given 5 opportunities for this test at an interval of 2 minutes period. The highest 3 records among the test opportunities were selected and the mean value was used as the test result. This experimentation was conducted according to the method described in the reference, ‘Jacqueline N. Crawley (1999) Behavioral phenotyping of transgenic and knockout mice: experimental design and evaluation of general health, sensory functions, motor abilities, and specific behavioral tests. Brain Res. 835: 18-26’.
as §2
(§3) The results of muscle relaxation activity of the phenylalkyl sulfamate compounds measured in above Experimental Examples 1 to 43 are shown in following Table 2.

[3] = tested on: male mice (ICR); experiment: Muscle relaxation activity by residence time on a rotarod rotating at a fixed speed; settings: intraperitoneal; for ED50: Mus musculus, ip, 15 rpm, max 10 min, ED50 vs vehicle only (100%), determined at 0.5 h (time of maximum effect)
Description: as §1
All the mice to be tested were preliminarily trained for 5 minutes on a rod rotating at the rate of 15 revolutions per a minute. The mice that could not remain on the rod without falling off therefrom for a minimum of 2 minutes were excluded from this testing. After the training, all the mice were allowed to rest for 45-60 minutes. Before the administration of the test compounds, the mice were subjected to a further training for one minute on the rod rotating under the same condition, where the mice falling off from the rod were excluded from this experimentation. […] In case a mouse stays on the rod until the test is finished, the time was recorded as 10 minutes. As test time for evaluation, a maximum of 10 minutes was applied. This experimentation was conducted according to the method described in the reference, ‘Yasuda et al. (2005) Antipyretic, analgesic and muscle relaxant activities of Pueraria isoflavonoids and their metabolites from Pueraria lobata Ohwi—a traditional Chinese drug. Biol. Pharm. Bull. 28: 1224-1228.
as §2, §3

[4] = ED50 = 50% of muscle relaxation activity compared to vehicle only (100%), determined at 0.5 h (time of maximum effect)
[5] = determined at 0.5 h (time of maximum effect)

SMILES | ED50 [1, 4] [mg/kg] | ED50 [3] [mg/kg] | Grip strength, percentage compared to the vehicle only (100%) [1] | also measured
CC1(C)O[C@H](c2ccccc2Cl)[C@@H](COS(N)(=O)=O)O1 [Example 1, ((4R,5R)-5-(2-chlorophenyl)-2,2-dimethyl-1,3-dioxolan-4-yl)methyl sulfamate] | 212 | 108 |  | ED50 [2, 5]: 96.7 mg/kg
CC1(C)O[C@@H](COS(N)(=O)=O)[C@H](c2ccccc2Cl)O1 [Example 2, ((4S,5S)-5-(2-chlorophenyl)-2,2-dimethyl-1,3-dioxolan-4-yl)methyl sulfamate] | 211 | 73.6 |  | ED50 [2, 5]: 81.4 mg/kg
CC1(C)OC(COS(N)(=O)=O)C(c2ccccc2Cl)O1 (centres unmarked) [Example 3, (5-(2-chlorophenyl)-2,2-dimethyl-1,3-dioxolan-4-yl)methyl sulfamate] |  | 99.2 |  | ED50 ([1]; ED50 vs vehicle only (100%), determined at 0.25 h (time of maximum effect)): 205 mg/kg; ED50 ([2]; determined at 1 h (time of maximum effect)): 116 mg/kg
CC1(C)OC(COS(N)(=O)=O)C(c2ccccc2Cl)O1 (centres unmarked) [Example 4, (5-(2-chlorophenyl)-2,2-dimethyl-1,3-dioxolan-4-yl)methyl sulfamate] |  |  | 200 (56.5%) | Wire suspension, percentage compared to the vehicle only (100%) [2]: 100 (41.3%); Fixed rotarod, percentage of residence time compared to the vehicle only (100%) ([3]; dose 100 (unit not given)): 100 (76.6%)
CC1O[C@@H](COS(N)(=O)=O)[C@H](c2ccccc2Cl)O1 (stereo partly drawn) [Example 6, ((4S,5S)-5-(2-chlorophenyl)-2-methyl-1,3-dioxolan-4-yl)methyl sulfamate] |  |  | 200 (44.8%) | Wire suspension, percentage compared to the vehicle only (100%) [2]: 100 (70.0%); Fixed rotarod, percentage of residence time compared to the vehicle only (100%) ([3]; dose 100 (unit not given)): 100 (50.4%)
CC1(C)O[C@H](c2ccccc2F)[C@@H](COS(N)(=O)=O)O1 [Example 15, ((4R,5R)-5-(2-fluorophenyl)-2,2-dimethyl-1,3-dioxolan-4-yl)methyl sulfamate] |  |  |  | Fixed rotarod, percentage of residence time compared to the vehicle only (100%) ([3]; dose 140 (unit not given)): 140(22.7%)
CC1(C)O[C@@H](COS(N)(=O)=O)[C@H](c2ccccc2F)O1 [Example 16, ((4S,5S)-5-(2-fluorophenyl)-2,2-dimethyl-1,3-dioxolan-4-yl)methyl sulfamate] | 161 |  |  | ED50 [2, 5]: 99.1 mg/kg
CC1(C)O[C@@H](COS(N)(=O)=O)[C@H](c2ccccc2I)O1 [Example 28, ((4S,5S)-5-(2-iodophenyl)-2,2-dimethyl-1,3-dioxolan-4-yl)methyl sulfamate] | 261 | 102 |  | Wire suspension, percentage compared to the vehicle only (100%) [2]: 100(66.8%)
NS(=O)(=O)OC[C@H]1OC2(CCCCC2)O[C@@H]1Cc1ccccc1Cl [Example 152, ((2R,3R)-3-(2-chlorobenzyl)-1,4-dioxaspiro[4,5]decan-2-yl)methyl sulfamate] |  |  | 200 (77.2%) | 
CC1(C)O[C@@H](CCOS(N)(=O)=O)[C@H](c2ccccc2Cl)O1 [Example 154, ((4S,5S)-5-(2-chlorophenyl)-2,2-dimethyl-1,3-dioxolan-4-yl)ethyl sulfamate] |  |  | 200 (70.4%) | 
CCC1(CC)O[C@@H](CCOS(N)(=O)=O)[C@H](c2ccccc2Cl)O1 [Example 156, 2-((4S,5S)-5-(2-chlorophenyl)-2,2-diethyl-1,3-dioxolan-4-yl)ethyl sulfamate] |  |  | 200 (73.2%) | 
NS(=O)(=O)OCC[C@@H]1OC2(CCCC2)O[C@H]1c1ccccc1Cl [Example 158, 2-((2S,3S)-3-(2-chlorophenyl)-1,4-dioxaspiro[4,4]nonan-2-yl)ethyl sulfamate] |  |  | 200 (74.2%) | 
NS(=O)(=O)OCC[C@@H]1OC2(CCCCC2)O[C@H]1c1ccccc1Cl [Example 160, 2-((2S,3S)-3-(2-chlorophenyl)-1,4-dioxaspiro[4,5]decan-2-yl)ethyl sulfamate] |  |  | 200 (86.8%) | 
